Data set [1] relates to IL-7 driven pSTAT5. Briefly: Clinical ex vivo IL-7 stimulation of whole blood, pSTAT5. It is filed as in vivo. The note with it: healthy volunteers, 5 mg tofacitinib, 1 h post dose. The method, then: (§1) Recombinant human IL-6 (400 ng/ml), or IL-7 (400 ng/ml), (R&D Systems, Minneapolis, MN) was added to blood and incubated for 10 min at 37°C. Surface antibodies were added (CD14-APC, CD3-fluorescein isothiocyanate [FITC]; BD Biosciences, San Jose, CA) and incubated on ice for an additional 20 min. Samples were lysed (Lyse/Fix, BD Biosciences, San Jose, CA) and incubated for 10 min at 37°C. Samples were washed and stored at − 70°C. For intracellular staining, samples were thawed, washed, and resuspended in BD Perm buffer III (BD Biosciences, San Jose, CA) on ice for 30 min. Samples were washed and stained with pSTAT5-PE or pSTAT3-PE (BD Biosciences, San Jose, CA) for 60 min at room temperature and then analyzed immediately on a FACSCalibur. Geometric means were determined using FlowJo analysis software.

The test system of data set [2] is IL-6 induced pSTAT3. Put plainly: Clinical ex vivo IL-6 stimulation of whole blood, pSTAT3. It is filed as in vivo, healthy volunteers. The conditions noted are these: healthy volunteers, 5 mg of tofacitinib, 1 h post dose. The method, then: as §1
For data set [3], the system named is CD3-/CD16+/CD56+ NK cells. Briefly: Circulating NK cell analysis after 14 days dosing. Type of data set: in vivo, rat. Here is the method:
Blood was collected and stained using BD MultiTest IMK kit (BD Biosciences, San Jose, CA) per manufacturer’s instructions. NK cell numbers were determined by using FlowJo analysis software (FlowJo, LLC, Ashland, OR) and by examining the CD3^−/CD16^+/CD56^+ population. The number of cells/μL was calculated by using the following equation: (# events in cell population/# of events in absolute bead count region) × (# beads per test/test volume), with the value beads per test indicated on the BD Trucount tube label.

In data set [4] the test system is reticulocyte deployment. Briefly: Epo induced reticulocyte deployment assay. Type of data set: in vivo. The conditions noted are these: rat, Epo challenge, highest concentration tested. The method, then: Naïve male Lewis rats were injected intravenously with either PBS or 1000 IU of epoetin α (Procrit®, Janssen Products, LP, Horsham, PA) for two consecutive days. Reticulocytes were measured on day 4 by flow cytometry using thiozole orange as a dye as previously described.

The subject of data set [5] is adjuvant induced arthritis. Briefly: Rat adjuvant-induced arthritis (AIA) model. It is filed as in vivo.

In the case of `C[C@@H]1CCN(C(=O)CC#N)C[C@@H]1N(C)c1ncnc2[nH]ccc12` [tofacitinib, reference compound], the “Inhibition of IL-7 driven pSTAT5” value in data set [1] was ~ 70%. Moreover, in data set [2], the “Inhibition of IL-6 induced pSTAT3” value is reported as ~ 50%. The “AUC60 for decrease of circulating NK cell numbers” value in data set [3] (naive rats dosed orally for 14 days) turned out to be 1230 ng·h/mL. Moreover, the “Decrease in circulating NK cells at AUC60” value in data set [3] (rat, at AUC60 of paw swelling) was 70%. Also, the “Maximal inhibition of reticulocyte deployment” value in data set [4] is recorded as > 40%. The “Reduction in paw swelling at clinical AUC exposures” value in data set [5] (exposure associated with 10 mg BID of tofacitinib) was ~ 60%. In data set [5] (oral BID), the “AUC60, AUC0-12 drug concentration necessary to achieve 60% inhibition of paw swelling” value was found to be 1205 ng·h/mL. Further, the “Effect on paw swelling” value in data set [5] (oral, dosed from day 7) is “dose-responsive efficacy”.

The values above are taken from paper PMC6390583 (BMC rheumatology, 2018).
